The values below come from PMC7043877, “Synthesis and evaluation of a prodrug of 5-aminosalicylic acid for the treatment of ulcerative colitis” (Iranian Journal of Basic Medical Sciences, 2019).

Where only a bound is given, the exact number is not on record here.

A short description of data set [1]: Pharmacokinetic study in rats after oral administration. It is filed as in vivo, rat. As for the experimental part: Twelve male Sprague-Dawley rats were randomly divided in two groups (n=6), the 5-ASA-ALA group and 5-ASA group. Rats were orally administered with a certain amount of 5-ASA-ALA (equivalent to 50 mg/kg of 5-ASA) and 5-ASA. At 0.25, 0.5, 1, 2, 4, 6 and 8 hr, blood samples were collected from the jugular vein and then centrifuged at 13000 g, 4 °C for 5 min to separate plasma. The plasma sample (0.1 ml) was mixed with methanol (0.4 ml), vortexed for 5 min and then centrifuged again. Finally, the supernatant was obtained, dried under nitrogen, dissolved in methanol and used for HPLC detection.

Data set [2] can be described thus: Stability study of 5-ASA-ALA in rat plasma and stomach, small intestine and colon contents (room temperature storage, freezing-thawing). It is filed as in vitro ADME. The note with it: all tissue samples at 0.4, 1.6 and 6.4 μg/ml, both storage conditions. On the procedure: This study was tested at three concentration levels of 5-ASA-ALA to evaluate its in vitro stability in tissue samples and validate the HPLC method for 5-ASA-ALA analysis under different conditions. Briefly, five rats were anesthetized and sacrificed, and their abdomen was cut open through the middle. Their stomach contents, small intestine contents and colon contents were collected and mixed with hydrochloric acid buffer (pH=1.2) and phosphate buffered saline (PBS) (pH=6.8 and 7.4), respectively, and homogenized to 20% (w/v). Then 1.0 ml of 5-ASA-ALA solution (dissolved in corresponding buffers) was mixed with the same volume of rat plasma, freshly prepared stomach contents, small intestine contents and colon contents, respectively, with the final concentration of 0.4, 1.6 and 6.4 μg/ml. Samples were divided into two groups, stored at room temperature for 10 hr or went through the freezing-thawing cycles twice. At the end of the storage and the freezing-thawing cycle, samples were centrifuged at 13000 g for 10 min and mixed with methanol (0.4 ml), then the mixture was vortexed and centrifuged again. Finally, the supernatant was collected, concentrated with nitrogen, and dissolved in methanol for HPLC analysis ([15]). Each concentration level was tested five times and the RSD was calculated respectively.

A short description of data set [3]: Transport study across Caco-2 monolayers (Papp). It is filed as in vitro ADME, human. Particulars: human, Caco-2. On the procedure: (§1) Caco-2 cells were grown in DEME medium containing 10% FBS, 100 unit/ml peniciline, 100 µg/ml streptomycine, 2 mM glutamine, 1% sodium pyruvate and 1% non-essential amino acids at 37 °C in a humidified atmosphere of 95% air and 5% CO2. Cells were seeded on polycarbonate membranes (Transwell, diameter 24 mm, pore size 0.4 μm, Corning Costar, NY, USA) at 1×10^5 cells/well in a 6-well plate ([16]). Propranolol was used as a positive control.
(§2) Eight days later, Caco-2 cells reached 100% confluence and then were cultured for 18 days more. The culture medium was discarded, and then the apical (AP) and basal (BL) chambers were washed for 3 times with PBS. The culture medium was then replaced with 1 ml of propranolol or 5-ASA-ALA solution ([…]) in the AP chamber. In the BL chamber, 2 ml of PBS was added instead of the culture medium. The plate was incubated at 37 °C in an atmosphere of 95% air and 5% CO2 ([17]). After 0, 2, 4, 6, and 8 hr of incubation, the concentration of propranolol and 5-ASA-ALA in the BL chamber was measured by HPLC method, and the apparent permeability coefficient (Papp) of drugs was calculated as follows: […]
(§3) where dQ/dt (μmol/s) is the transport rate, C0 (μmol/cm^3) is the initial concentration in the donor chamber, and A (cm^2) is the surface area of insert filter membrane. Experiments were performed in triplicate.

Data set [4] relates to Caco-2 cells. The experiment in a line: Transport study across Caco-2 monolayers (Papp). Particulars: compared with propranolol. Type of data set: in vitro ADME, human. As for the experimental part: as §1, §2, §3
Data set [5] in a line: In vitro incubation with colon contents of rats. It is filed as in vitro ADME, rat. As for the experimental part:
Four g of colon contents of rats (n=6) were collected and mixed with 5-ASA-ALA solution (0.1 g/ml) in PBS (pH=7.4, 40 ml), the mixture was incubated under nitrogen atmosphere at 37 °C. At the time point of 0, 1, 2, 3, 4, 5, 6, 7, 8, 9 and 10 hr, the mixture (0.5 ml) was sampled and replaced with an equivalent volume of PBS. Samples were then centrifuged and filtered, the concentration of 5-ASA was detected by HPLC method. The experiment was conducted at seven concentration levels of 5-ASA-ALA (27.5, 50.0, 72.5, 105.0, 150.0, 200.0 and 305.0 μg/ml). The hydrolysis curve of each concentration was drawn, the linear regression was made to obtain regression equations, and the slope of each curve was regarded as the hydrolysis rate of 5-ASA-ALA.

Data set [6] has as its system colonic microflora. Put plainly: In vivo incubation in the colon of rats (with or without clindamycin pretreatment). Particulars: incubation in rat colon for 8 hr. On the procedure:
Rats were randomly divided into two groups (n=6), the clindamycin group and the control group. Clindamycin was used as an inhibitor of the colonic microflora. Rats were administered with a certain dose of clindamycin (25 mg/kg of body weight) and an equivalent volume of normal saline by gavage, twice daily for three days, respectively. After that, rats were anesthetized by diethyl ether, their abdomen was cut open, and then 5-ASA-ALA solution (2 mg, dissolved in 1 ml of PBS, pH=7.4) was injected into their colon, finally, their colon was tied at both ends and their abdomen was sutured immediately ([18], [19]). Eight hr later, animals were sacrificed, the colon contents of rats were collected and homogenized in PBS (pH=7.4, 40 ml). The homogenate was then centrifuged, and the supernatant was obtained and mixed with four times the volume of methanol, finally, samples were centrifuged, filtered and analyzed by HPLC. The percent of hydrolysis of 5-ASA-ALA was calculated as follows: percent of hydrolysis %=(1-Wf/Wt)×100 where Wf is the free amount of 5-ASA in the colon contents and Wi is the initial amount of 5-ASA-ALA that administered to rats.

The test system of data set [7] is TNBS-induced colitis. The experiment in a line: TNBS-induced colitis: survival rate and body weight of mice. Type of data set: in vivo. Particulars: ig equivalent to 100 mg/kg of 5-ASA, once daily 5 days. As for the experimental part: (§4) Colitis induction was performed based on the previous study ([20]). After a 12 hr of fast, mice were anesthetized with pentobarbital sodium (40 mg/kg of body weight). TNBS solution (0.1 ml dissolved in 50% ethanol, 2.5%) was injected into the colon of mice (3.5-4 cm from the anus), and then mice were kept head downward for 30 sec to prevent drug leakage. Twenty-four hr after the injection of TNBS, mice were administrated once daily for five continuous days with different drugs. Briefly, mice in treatment groups were administrated with a given dose of drugs by gavage (0.1 ml, equivalent to 100 mg/kg of 5-ASA) ([21]). Besides, mice in the control group and the positive group received a same volume of normal saline, and a physical mixture of 5-ASA and alanine, respectively. Forty-eight mice were randomly divided into four groups (n=12): 1) control (intragastric-gavage (ig), normal saline, no colitis induced), 2) TNBS (ig, normal saline), 3) positive (ig, 100 mg/kg 5-ASA+56 mg/kg alanine, dissolved in normal saline), 4) 5-ASA-ALA (ig, 156 mg/kg, dissolved in normal saline).
From day 0 of colitis induction, the body weight of each mouse and the death of each group were recorded daily. Finally, the degree of TNBS-induced colitis in mice of each group was evaluated based on the curves of weight changes and the final survival rate of mice for each group.

The test system of data set [8] is TNBS-induced colitis. The experiment in a line: TNBS-induced colitis: disease activity index (DAI). Type of data set: in vivo, mice. Particulars: compared with the positive control. On the procedure:
as §4
The disease activity index (DAI) of mice was scored and recorded daily from day 1 according to the scoring criteria (Table 1). […] The degree of fecal occult blood was evaluated by the ο-tolidine method ([22]), and scored based on the criteria reported by Kohn and kelly ([23]).

The subject of data set [9] is TNBS-induced colitis. The experiment in a line: TNBS-induced colitis: colonic damage score (CDS) and colon index. It is filed as in vivo, mice. Particulars: vs positive control, P<0.05. On the procedure: Colitis induction was performed based on the previous study ([20]). After a 12 hr of fast, mice were anesthetized with pentobarbital sodium (40 mg/kg of body weight). TNBS solution (0.1 ml dissolved in 50% ethanol, 2.5%) was injected into the colon of mice (3.5-4 cm from the anus), and then mice were kept head downward for 30 sec to prevent drug leakage. Twenty-four hr after the injection of TNBS, mice were administrated once daily for five continuous days with different drugs. Briefly, mice in treatment groups were administrated with a given dose of drugs by gavage (0.1 ml, equivalent to 100 mg/kg of 5-ASA) ([21]). […]
All mice were sacrificed on the 5th day of the experiment, their colonic tissues were excised, cut longitudinally, washed carefully with normal saline, and observed with a magnifying glass. The colonic damage score (CDS) was evaluated according to following scoring criteria: 0, no ulcer and colitis; 1, local hyperemia without ulcer; 2, ulcers without local hyperemia; 3, only one ulcerative and inflammatory lesion; 4, more than one ulcerative and inflammatory lesions; 5, more than 2 cm of continuous ulcer areas ([24]).
The entire colon samples were dried with filter papers, the length and weight of the samples were measured and recorded, respectively, in order to calculate the colon index of mice as the following formula: […]

For data set [10], the system named is MPO activity in colonic tissues. Put plainly: TNBS-induced colitis: MPO activity in colonic tissues. It is filed as in vivo, mice. The note with it: P<0.01. On the procedure: as §4
Colonic tissue samples were cleaned, dried and then suspended in HTAB solution (0.5%, pH=7.4), the final concentration of the tissue samples was 50 g/l. […] Finally, MPO activity in colonic tissues was detected by an assay kit according to the provider’s instructions.

Data set [11] concerns GSH, MDA, GSH-Px and SOD in colonic tissues. The experiment in a line: TNBS-induced colitis: levels of GSH, MDA, GSH-Px and SOD in colonic tissues. It is filed as in vivo, mice. Particulars: P<0.01. On the procedure: as §4
Clean and dried colonic tissues were homogenized in ice-cold normal saline, the resulting homogenate (10%, w/v) was centrifuged at 4 °C, 13000 g for 15 min. The obtained supernatant was diluted with normal saline to 1% (w/v), and the protein levels in the supernatant were measured by a BCA protein assay kit. The levels of GSH and MDA, and the activity of GSH-Px and SOD in the colonic tissues were measured by assay kits according to the provider’s instructions.

Data set [12] has as its system Caco-2 cells. The note with it: Caco-2 cell monolayer, known value that justifies the positive control; no reference given; cited from earlier work.
[13] abbreviates: vs TNBS group, five days of treatment.

On to `Nc1ccc(O)c(C(=O)O)c1` [5-ASA, 5-Aminosalicylic acid], for which the Tmax in data set [1] (male, Sprague-Dawley, rat, oral administration, 50 mg/kg of 5-ASA, plasma) came out at 30 min.
Consider `CC(NC(=O)c1cc(N)ccc1O)C(=O)O` (centres unmarked) [5-ASA-ALA, 5-Aminosalicylic acid-alanine], for which the “RSDs in all tissue samples” value in data set [2] is on record as less than 4%. Moreover, the Papp at 8 hr, 200 μmol/l in data set [3] (apical to basal direction, at 200 μmol/l) amounted to 2.63 ×10⁻⁶ cm/s. Further, the Papp at 8 hr, 400 μmol/l in data set [3] (apical to basal direction, at 400 μmol/l) was 1.73 ×10⁻⁶ cm/s. The “absorption in the Caco-2 monolayer” value in [4] is reported as “significantly less than the propranolol”. The plasma concentration entry in [1] (oral, equivalent to 50 mg/kg of 5-ASA, 0-8 hr) is given as “not detected”. Besides, in data set [5] (colon contents of rats, Figure 3), the “concentration of 5-ASA-ALA above which the hydrolysis rate did not increase anymore (zero-order)” value is listed as “above 200 µg/ml”. The “5-ASA released from 5-ASA-ALA” value in [5] (colon contents, PBS pH 7.4, nitrogen, 37 °C, 0-10 hr) is “gradually released”. In addition, the percent of hydrolysis in data set [6] (clindamycin group (25 mg/kg twice daily, three days), P<0.01) stood at 5.26%. Besides, the percent of hydrolysis in [6] (control group (normal saline)) is 89.14%. For the same compound, in data set [7] (alleviated from the third day), the body weight entry was “slight weight loss in the first two days”. Also, in data set [7] (positive control vs 5-ASA-ALA group, n=12), the survival rate result was “no significant difference”. In addition, the DAI entry in [8] is “more effective than the positive control”. The CDS entry in data set [9] was “significantly greater effect than the positive control”. In addition, in data set [10] (vs TNBS group), the “MPO activity in colonic tissues” value is on record as “significantly reduced”. Moreover, in data set [10] (vs positive control), the “MPO activity in colonic tissues” value is “obviously more effective than the positive control”. In data set [11] (setting [13]), the “GSH level in colonic tissues” value is listed as “significantly higher”, the “GSH-Px activity in colonic tissues” value is on record as “higher activities”, the “MDA level in colonic tissues” value is listed as “significantly lower” and the “SOD activity in colonic tissues” value is on record as “higher activities”. Moreover, in [11] (vs positive control), the “reducing the MDA level in the colon” value is reported as “significantly greater effect”.
`CC(C)NCC(O)COc1cccc2ccccc12` (centres unmarked) [Propranolol, reference compound] came in with a Papp at 8 hr, 100 μmol/l in [3] (detected in this study, at 100 μmol/l) of 24.8 ×10⁻⁶ cm/s. For the same compound, the Papp in [12] was 27.5 ×10⁻⁶ cm/s.
